Reference: US8802665B2, “Pyrrolidine derivatives” (Hoffman-La Roche Inc., priority 2012, dated 2014)
Where a name gives a salt, the structure may show the parent alone.

What follows are compounds tested against human Cat S (Homo sapiens (Human), UniProt P25774) (assay: Cathepsin enzyme inhibition assay (fluorogenic peptide substrate cleavage)). Conditions: human Cathepsin S 1 nM, substrate Z-Val-Val-Arg-AMC 20 μM, pH 6.5; read-out: Ic50 CatS: human.
human Cat S, sequence (P25774 115-331): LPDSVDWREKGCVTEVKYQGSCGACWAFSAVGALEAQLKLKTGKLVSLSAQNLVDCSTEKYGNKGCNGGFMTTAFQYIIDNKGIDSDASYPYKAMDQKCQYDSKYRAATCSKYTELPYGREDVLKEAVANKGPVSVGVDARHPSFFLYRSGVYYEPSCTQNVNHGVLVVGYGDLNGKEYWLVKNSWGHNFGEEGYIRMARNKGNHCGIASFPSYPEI
Assay type: biochemical
Description: Cathepsin Enzyme Inhibition Assay
Enzyme activity is measured by observing the increase in fluorescence intensity caused by cleavage of a peptide substrate containing a fluorophore whose emission is quenched in the intact peptide. • Assay buffer: 100 mM potassium phosphate pH 6.5, EDTA-Na 5 mM, Triton X-100 0.001%, DTT 5 mM. • Enzymes (all at 1 nM): human and mouse Cathepsin S, Cat K, Cat B, Cat L. • Substrate (20 μM): Z-Val-Val-Arg-AMC, except for Cat K which uses Z-Leu-Arg-AMC (both from Bachem). • Z=Benzyloxycarbonyl. • AMC=7-Amino-4-Methyl-Coumarin. • DTT=dithiothreitol. • Final volume: 100 μL. • Excitation 360 nm, Emission 465 nm.
Enzyme is added to the substance dilutions in 96-well microtitre plates and the reaction is started with substrate. Fluorescence emission is measured over 20 minutes, during which time a linear increase is observed in the absence of inhibitor. IC50 are calculated by standard methods.
Inhibition of human Cat S, mouse Cat S, human Cat K, human Cat B, human Cat L and mouse Cat L have been measured separately. The results obtained for human Cat S for representative compounds of the invention are expressed in the following table in μM.
In the case of `N#CC1(NC(=O)[C@@H]2C[C@@H](S(=O)(=O)c3ccccc3Cl)CN2C(=O)C2CCN2C2CCCCC2)CC1` (stereo partly drawn) [Example 1, (2S,4R)-4-(2-Chlorophenylsulfonyl)-N-(1-cyanocyclopropyl)-1-(1-cyclohexylazetidine-2-carbonyl)pyrrolidine-2-carboxamide], the IC50 is reported as 1.7 nM.
`N#CC1(NC(=O)[C@@H]2C[C@@H](S(=O)(=O)c3ccccc3Cl)CN2C(=O)C2CCN2C2CCC(F)(F)CC2)CC1` (stereo partly drawn) [Example 2, (2S,4R)-4-(2-Chlorophenylsulfonyl)-N-(1-cyanocyclopropyl)-1-(1-(4,4-difluorocyclohexyl)azetidine-2-carbonyl)pyrrolidine-2-carboxamide] showed an IC50 of 1 nM.
For `CC1(C)CCC(N2CCC2C(=O)N2C[C@H](S(=O)(=O)c3ccccc3Cl)C[C@H]2C(=O)NC2(C#N)CC2)CC1` (stereo partly drawn) [Example 3, (2S,4R)-4-(2-Chlorophenylsulfonyl)-N-(1-cyanocyclopropyl)-1-(1-(4,4-dimethylcyclohexyl)azetidine-2-carbonyl)pyrrolidine-2-carboxamide], the IC50 was 3.8 nM.
For `Cc1nsc(N2CCC(N3CCC3C(=O)N3C[C@H](S(=O)(=O)c4ccccc4Cl)C[C@H]3C(=O)NC3(C#N)CC3)CC2)n1` (stereo partly drawn) [Example 4, (2S,4R)-4-(2-Chlorophenylsulfonyl)-N-(1-cyanocyclopropyl)-1-(1-(1-(3-methyl-1,2,4-thiadiazol-5-yl)piperidin-4-yl)azetidine-2-carbonyl)pyrrolidine-2-carboxamide formate], the IC50 was 0.9 nM.
With `N#CC1(NC(=O)[C@@H]2C[C@@H](S(=O)(=O)c3ccccc3Cl)CN2C(=O)C2CCN2C2CCOCC2)CC1` (stereo partly drawn) [Example 5, (2S,4R)-4-(2-Chlorophenylsulfonyl)-N-(1-cyanocyclopropyl)-1-(1-(tetrahydro-2H-pyran-4-yl)azetidine-2-carbonyl)pyrrolidine-2-carboxamide formate] the IC50 was 0.8 nM.
`CC(=O)N1CCC(N2CCC2C(=O)N2C[C@H](S(=O)(=O)c3ccccc3Cl)C[C@H]2C(=O)NC2(C#N)CC2)CC1` (stereo partly drawn) [Example 6, (2S,4R)-1-(1-(1-Acetylpiperidin-4-yl)azetidine-2-carbonyl)-4-(2-chlorophenylsulfonyl)-N-(1-cyanocyclopropyl)pyrrolidine-2-carboxamide] showed an IC50 of 1.3 nM.
With `N#CC1(NC(=O)[C@@H]2C[C@@H](S(=O)(=O)c3ccccc3Cl)CN2C(=O)C2CCN2C2CCN(CC(F)(F)F)CC2)CC1` (stereo partly drawn) [Example 7, (2S,4R)-4-(2-Chlorophenylsulfonyl)-N-(1-cyanocyclopropyl)-1-(1-(1-(2,2,2-trifluoroethyl)piperidin-4-yl)azetidine-2-carbonyl)pyrrolidine-2-carboxamide] the IC50 was 3.9 nM.
`CC1(C)CC(N2CCC2C(=O)N2C[C@H](S(=O)(=O)c3ccccc3Cl)C[C@H]2C(=O)NC2(C#N)CC2)CCO1` (stereo partly drawn) [Example 8, (2S,4R)-4-(2-Chlorophenylsulfonyl)-N-(1-cyanocyclopropyl)-1-(1-(2,2-dimethyltetrahydro-2H-pyran-4-yl)azetidine-2-carbonyl)pyrrolidine-2-carboxamide] gave an IC50 of 2.5 nM.
With `N#CC1(NC(=O)[C@@H]2C[C@@H](S(=O)(=O)c3ccccc3Cl)CN2C(=O)C2CCN2C2CCCC2)CC1` (stereo partly drawn) [Example 9, (2S,4R)-4-(2-Chlorophenylsulfonyl)-N-(1-cyanocyclopropyl)-1-(1-cyclopentylazetidine-2-carbonyl)pyrrolidine-2-carboxamide] the IC50 was 2 nM.
With `N#CC1(NC(=O)[C@@H]2C[C@@H](S(=O)(=O)c3ccccc3Cl)CN2C(=O)C2CCN2C2CCSCC2)CC1` (stereo partly drawn) [Example 10, (2S,4R)-4-(2-Chlorophenylsulfonyl)-N-(1-cyanocyclopropyl)-1-(1-(tetrahydro-2H-thiopyran-4-yl)azetidine-2-carbonyl)pyrrolidine-2-carboxamide] the IC50 was 2.2 nM.
`CCOC(=O)N1CCC(N2CCC2C(=O)N2C[C@H](S(=O)(=O)c3ccccc3Cl)C[C@H]2C(=O)NC2(C#N)CC2)CC1` (stereo partly drawn) [Example 11, Ethyl 4-(2-((2S,4R)-4-(2-chlorophenylsulfonyl)-2-(1-cyanocyclopropylcarbamoyl)pyrrolidine-1-carbonyl)azetidin-1-yl)piperidine-1-carboxylate] gave an IC50 of 1.7 nM.
In the case of `CS(=O)(=O)N1CCC(N2CCC2C(=O)N2C[C@H](S(=O)(=O)c3ccccc3Cl)C[C@H]2C(=O)NC2(C#N)CC2)CC1` (stereo partly drawn) [Example 12, (2S,4R)-4-(2-Chlorophenylsulfonyl)-N-(1-cyanocyclopropyl)-1-(1-(1-(methylsulfonyl)piperidin-4-yl)azetidine-2-carbonyl)pyrrolidine-2-carboxamide], the IC50 is reported as 2.7 nM.
In the case of `CCOC(=O)N1CCC(N2CCC2C(=O)N2C[C@H](Sc3ccc(F)cc3Cl)C[C@H]2C(=O)NC2(C#N)CC2)CC1` (stereo partly shown) [Example 13], the IC50 is reported as 6.7 nM.
`CCOC(=O)N1CCC(N2CCC2C(=O)N2C[C@H](S(=O)(=O)c3ccc(F)cc3Cl)C[C@H]2C(=O)NC2(C#N)CC2)CC1` (stereo partly drawn) [Example 14, Ethyl 4-(2-((2S,4R)-4-(2-chloro-4-fluorophenylsulfonyl)-2-(1-cyanocyclopropylcarbamoyl)pyrrolidine-1-carbonyl)azetidin-1-yl)piperidine-1-carboxylate] showed an IC50 of 1.5 nM.
Compound `CCOC(=O)N1CCC(N2CCC2C(=O)N2C[C@H](Sc3ccc(Cl)cc3)C[C@H]2C(=O)NC2(C#N)CC2)CC1` (stereo partly drawn) [Example 15, Ethyl 4-(2-((2S,4R)-4-(4-chlorophenylthio)-2-(1-cyanocyclopropylcarbamoyl)pyrrolidine-1-carbonyl)azetidin-1-yl)piperidine-1-carboxylate] has an IC50 of 121 nM.
With `CCOC(=O)N1CCC(N2CCC2C(=O)N2C[C@H](Sc3ccccc3OC)C[C@H]2C(=O)NC2(C#N)CC2)CC1` (stereo partly drawn) [Example 16, Ethyl 4-(2-((2S,4R)-2-(1-cyanocyclopropylcarbamoyl)-4-(2-methoxyphenylthio)pyrrolidine-1-carbonyl)azetidin-1-yl)piperidine-1-carboxylate] the IC50 was 1740 nM.
Compound `CCOC(=O)N1CCC(N2CCC2C(=O)N2C[C@H](Sc3ccccc3OC(F)(F)F)C[C@H]2C(=O)NC2(C#N)CC2)CC1` (stereo partly drawn) [Example 17, Ethyl 4-(2-((2S,4R)-2-(1-cyanocyclopropylcarbamoyl)-4-(2-(trifluoromethoxy)phenylthio)pyrrolidine-1-carbonyl)azetidin-1-yl)piperidine-1-carboxylate] has an IC50 of 65.5 nM.
`CCOC(=O)N1CCC(N2CCC2C(=O)N2C[C@H](Sc3cccc(C(F)(F)F)c3)C[C@H]2C(=O)NC2(C#N)CC2)CC1` (stereo partly drawn) [Example 18, Ethyl 4-(2-((2S,4R)-2-(1-cyanocyclopropylcarbamoyl)-4-(3-(trifluoromethyl)phenylthio)pyrrolidine-1-carbonyl)azetidin-1-yl)piperidine-1-carboxylate] showed an IC50 of 8 nM.
Compound `CCOC(=O)N1CCC(N2CCC2C(=O)N2C[C@H](S(=O)(=O)c3cccc(Cl)c3)C[C@H]2C(=O)NC2(C#N)CC2)CC1` (stereo partly drawn) [Example 19, Ethyl 4-(2-((2S,4R)-4-(3-chlorophenylsulfonyl)-2-(1-cyanocyclopropylcarbamoyl)pyrrolidine-1-carbonyl)azetidin-1-yl)piperidine-1-carboxylate] has an IC50 of 1.8 nM.
`CCOC(=O)N1CCC(N2CCC2C(=O)N2C[C@H](S(=O)(=O)c3ccc(C)cc3)C[C@H]2C(=O)NC2(C#N)CC2)CC1` (stereo partly drawn) [Example 20, Ethyl 4-(2-((2S,4R)-2-(1-cyanocyclopropylcarbamoyl)-4-tosylpyrrolidine-1-carbonyl)azetidin-1-yl)piperidine-1-carboxylate] showed an IC50 of 1.4 nM.
`CCOC(=O)N1CCC(N2CCC2C(=O)N2C[C@H](S(=O)(=O)c3ccccc3OC)C[C@H]2C(=O)NC2(C#N)CC2)CC1` (stereo partly drawn) [Example 21, Ethyl 4-(2-((2S,4R)-2-(1-cyanocyclopropylcarbamoyl)-4-(2-methoxyphenylsulfonyl)pyrrolidine-1-carbonyl)azetidin-1-yl)piperidine-1-carboxylate] showed an IC50 of 9.2 nM.
Compound `CCOC(=O)N1CCC(N2CCC2C(=O)N2C[C@H](S(=O)(=O)c3ccc(Cl)cc3)C[C@H]2C(=O)NC2(C#N)CC2)CC1` (stereo partly drawn) [Example 22, Ethyl 4-(2-((2S,4R)-4-(4-chlorophenylsulfonyl)-2-(1-cyanocyclopropylcarbamoyl)pyrrolidine-1-carbonyl)azetidin-1-yl)piperidine-1-carboxylate] has an IC50 of 2.8 nM.
`CCOC(=O)N1CCC(N2CCC2C(=O)N2C[C@H](S(=O)(=O)c3ccccc3OC(F)(F)F)C[C@H]2C(=O)NC2(C#N)CC2)CC1` (stereo partly drawn) [Example 23, Ethyl 4-(2-((2S,4R)-2-(1-cyanocyclopropylcarbamoyl)-4-(2-(trifluoromethoxy)phenylsulfonyl)pyrrolidine-1-carbonyl)azetidin-1-yl)piperidine-1-carboxylate] gave an IC50 of 4.1 nM.
Compound `CCOC(=O)N1CCC(N2CCC2C(=O)N2C[C@H](S(=O)(=O)c3cccc(C(F)(F)F)c3)C[C@H]2C(=O)NC2(C#N)CC2)CC1` (stereo partly drawn) [Example 24, Ethyl 4-(2-((2S,4R)-2-(1-cyanocyclopropylcarbamoyl)-4-(3-(trifluoromethyl)phenylsulfonyl)pyrrolidine-1-carbonyl)azetidin-1-yl)piperidine-1-carboxylate] has an IC50 of 1.6 nM.
Compound `N#CC1(NC(=O)[C@@H]2C[C@@H](S(=O)(=O)c3ccccc3Cl)CN2C(=O)C2(N3CCCCC3)CC2)CC1` [Example 25, (2S,4R)-4-(2-Chlorophenylsulfonyl)-N-(1-cyanocyclopropyl)-1-(1-(piperidin-1-yl)cyclopropanecarbonyl)pyrrolidine-2-carboxamide] has an IC50 of 0.5 nM.
